Read-outs that look alike come from different tables or passages of the source.
Experiments:
[1] = tested on: MV4:11 human cancer cell lines; test: Anti-proliferative activity, CellTiter-Glo viability assay, 7 day protocol; assay type: cell-based; conditions: Homo sapiens, MV4-11, 168 h, MV4:11 cells, 7 day incubation, read-out: GI50 on cellular proliferation of MV4:11 human cancer cell lines
In short: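 MV4:11 cells seeded at 3600 cells/ml and exposed to compounds for 7 days, 0.1% DMSO final. Viability measured by CellTiter-Glo luminescence. GI50 from three biological replicates, each in technical triplicate, given as mean ± S.E.M.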

[2] = target: WDR5 (Homo sapiens (Human), UniProt P61964); test: TR-FRET binding assay (displacement of 10mer-Thr-FAM probe from WDR5); conditions: read-out: Ki for Inhibition of WDR5 by TR-FRET assay
[3] = TR-FRET, 10mer-Thr-FAM probe, WDR5-His tag 2 nM, pH 7.0

Row | Compound | GI50 [1] | Ki [2, 3] | Ki [2]
1 | COc1cc(OC)cc(C(NC(=O)c2cc(Cn3ccoc3=N)cc(-c3ccc(F)cc3OC(F)F)c2)C2CC2)c1 (centres unmarked) [Example 236, N-(Cyclopropyl(3,5-dimethoxyphenyl)methyl)-2′-(difluoromethoxy)-4′-fluoro-5-((2-iminooxazol-3(2H)-yl)methyl)-[1,1′-biphenyl]-3-carboxamide] | 450 nM | 0.16 nM | –
2 | COc1cc(CNC(=O)c2cc(Cn3ccoc3=N)cc(-c3ncc(F)cc3C)c2)cc(OC)c1 [Example 238, N-(3,5-Dimethoxybenzyl)-3-(5-fluoro-3-methylpyridin-2-yl)-5-((2-iminooxazol-3(2H)-yl)methyl)benzamide] | 3800 nM | – | 2.9 nM
3 | Cc1ccnc([C@@H](NC(=O)c2cc(Cn3ccoc3=N)cc(-c3ccc(F)cc3C)c2)C2CC2)c1 [Example 247, (S)—N-(Cyclopropyl(4-methylpyridin-2-yl)methyl)-4′-fluoro-5-((2-iminooxazol-3(2H)-yl)methyl)-2′-methyl-[1,1′-biphenyl]-3-carboxamide] | 270 nM | 0.14 nM | –
4 | Cc1cc([C@@H](NC(=O)c2cc(Cn3ccoc3=N)cc(-c3ccc(F)cc3Cl)c2)C2CC2)ccc1F [Example 248, (S)-2′-Chloro-N-(cyclopropyl(4-fluoro-3-methylphenyl)methyl)-4′-fluoro-5-((2-iminooxazol-3(2H)-yl)methyl)-[1,1′-biphenyl]-3-carboxamide] | 120 nM | < 0.1 nM | –
5 | Cc1cn(Cc2cc(C(=O)N[C@H](c3ccc(F)c(C)c3)C3CC3)cc(-c3cccnc3C(F)(F)F)c2)c(=N)o1 [Example 250, (S)—N-(Cyclopropyl(4-fluoro-3-methylphenyl)methyl)-3-((2-imino-5-methyloxazol-3(2H)-yl)methyl)-5-(2-(trifluoromethyl)pyridin-3-yl)benzamide] | 570 nM | 0.4 nM | –
6 | Cc1cc([C@@H](NC(=O)c2cc(Cn3ccoc3=N)cc(-c3cn(C)nc3C(F)(F)F)c2)C2CC2)ccc1F [Example 259, (S)—N-(Cyclopropyl(4-fluoro-3-methylphenyl)methyl)-3-((2-iminooxazol-3(2H)-yl)methyl)-5-(1-methyl-3-(trifluoromethyl)-1H-pyrazol-4-yl)benzamide] | < 100 nM | – | < 0.1 nM
7 | Cc1cc([C@@H](NC(=O)c2cc(Cn3ccoc3=N)cc(-c3cccnc3OC(F)F)c2)C2CC2)ccc1F [Example 261, (S)—N-(Cyclopropyl(4-fluoro-3-methylphenyl)methyl)-3-(2-(difluoromethoxy)pyridin-3-yl)-5-((2-iminooxazol-3(2H)-yl)methyl)benzamide] | 730 nM | 0.28 nM | –
8 | Cn1cc(-c2cc(Cn3ccoc3=N)cc(C(=O)N[C@H](c3ccc(Cl)c(Cl)c3)C3CC3)c2)c(C(F)(F)F)n1 [Example 268, (S)—N-(Cyclopropyl(3,4-dichlorophenyl)methyl)-3-((2-iminooxazol-3(2H)-yl)methyl)-5-(1-methyl-3-(trifluoromethyl)-1 t-pyrazol-4-yl)benzamide] | < 100 nM | – | < 0.1 nM
9 | Cn1cc(-c2cc(CN3CCOC3=N)cc(C(=O)N[C@H](c3ccc(Cl)c(Cl)c3)C3CC3)c2)c(C(F)(F)F)n1 [Example 269, (S)—V—N-(Cyclopropyl(3,4-dichlorophenyl)methyl)-3-((2-iminooxazolidin-3-yl)methyl)-5-(1-methyl-3-(trifluoromethyl)-1H-pyrazol-4-yl)benzamide] | < 100 nM | < 0.1 nM | –
10 | Cc1cc([C@@H](NC(=O)c2cc(CN3CCOC3=N)cc(-c3ccc(F)cc3C(F)F)c2)C2CC2)ccc1F [Example 272, (S)—N-(Cyclopropyl(4-fluoro-3-methylphenyl)methyl)-2′-(difluoromethyl)-4′-fluoro-5-((2-iminooxazolidin-3-yl)methyl)-[1,1′-biphenyl]-3-carboxamide] | 100 nM | < 0.1 nM | –
11 | Cc1cc([C@@H](NC(=O)c2cc(CN3CCOC3=N)cc(-c3ccc(F)cc3OC(F)F)c2)C2CC2)ccc1F [Example 273, (S)—N-(Cyclopropyl(4-fluoro-3-methylphenyl)methyl)-2′-(difluoromethoxy)-4′-fluoro-5-((2-iminooxazolidin-3-yl)methyl)-[1,1′-biphenyl]-3-carboxamide] | 140 nM | < 0.1 nM | –
12 | Cc1cc([C@@H](NC(=O)c2cc(Cn3ccoc3=N)cc(-c3ccc(F)cc3C(F)F)c2)C2CC2)ccc1F [Example 274, (S)—N-(Cyclopropyl(4-fluoro-3-methylphenyl)methyl)-2′-(difluoromethyl)-4′-fluoro-5-((2-iminooxazol-3(2H)-yl)methyl)-[1,1′-biphenyl]-3-carboxamide] | < 100 nM | < 0.1 nM | –
13 | Cc1cc([C@@H](NC(=O)c2cc(CN3CCOC3=N)cc(-c3cn(C(C)C)nc3C(F)(F)F)c2)C2CC2)ccc1F [Example 275, (S)—N-(Cyclopropyl(4-fluoro-3-methylphenyl)methyl)-3-((2iminooxazolidin-3-yl)methyl)-5-(1-isopropyl-3-(trifluoromethyl)-1H-pyrazol-4-yl)benzamide] | < 100 nM | < 0.1 nM | –
14 | CCn1cc(-c2cc(Cn3ccoc3=N)cc(C(=O)N[C@H](c3ccc(Cl)c(Cl)c3)C3CC3)c2)c(C(F)(F)F)n1 [Example 280, (S)—N-(Cyclopropyl(3,4-dichlorophenyl)methyl)-3-(1-ethyl-3-(trifluoromethyl)-1H-pyrazol-4-yl)-5-((2-iminooxazol-3(2H)-yl)methyl)benzamide] | < 100 nM | < 0.1 nM | –
15 | CCn1cc(-c2cc(CN3CCOC3=N)cc(C(=O)N[C@H](c3ccc(Cl)c(Cl)c3)C3CC3)c2)c(C(F)(F)F)n1 [Example 281, (S)—N-(Cyclopropyl(3,4-dichlorophenyl)methyl)-3-(1-ethyl-3-(trifluoromethyl)-1H-pyrazol-4-yl)-5-((2-iminooxazolidin-3-yl)methyl)benzamide] | < 100 nM | < 0.1 nM | –
16 | Cc1cc([C@@H](NC(=O)c2cc(CN3CCOC3=N)cc(-c3ccc(F)cc3C#N)c2)C2CC2)ccc1F [Example 282, (S)-2′-Cyano-N-(cyclopropyl(4-fluoro-3-methylphenyl)methyl)-4′-fluoro-5-((2-iminooxazolidin-3-yl)methyl)-[1,1′-biphenyl]-3-carboxamide] | 200 nM | 0.21 nM | –
17 | Cc1cc([C@@H](NC(=O)c2cc(CN3CCOC3=N)cc(-c3ccc(F)cc3C(F)(F)F)c2F)C2CC2)ccc1F [Example 283, (S)—N-(Cyclopropyl(4-fluoro-3-methylphenyl)methyl)-2,4′-difluoro-5-((2-iminooxazolidin-3-yl)methyl)-2′-(trifluoromethyl)-[1,1′-biphenyl]-3-carboxamide] | 120 nM | 0.02 nM | –
18 | N=C1OCCN1Cc1cc(C(=O)N[C@H](c2ccc(Cl)c(Cl)c2)C2CC2)cc(-c2ncc(F)cc2C(F)(F)F)c1 [Example 284, (S)—N-(Cyclopropyl(3,4-dichlorophenyl)methyl)-3-(5-fluoro-3-(trifluoromethyl)pyridin-2-yl)-5-((2-iminooxazolidin-3-yl)methyl)benzamide] | 270 nM | 0.11 nM | –
19 | Cc1cc([C@@H](NC(=O)c2cc(CN3CCOC3=N)cc(-c3ccc(F)cc3C(F)(F)F)c2)C2CC2)ccc1F [Example 285, (S)—N-(Cyclopropyl(4-fluoro-3-methylphenyl)methyl)-4′-fluoro-5-((2-iminooxazolidin-3-yl)methyl)-2′-(trifluoromethyl)-[1,1′-biphenyl]-3-carboxamide] | < 100 nM | < 0.1 nM | –
20 | CC(C)n1cc(-c2cc(CN3CCOC3=N)cc(C(=O)N[C@H](c3ccc(F)c(F)c3)C3CC3)c2)c(C(F)(F)F)n1 [Example 286, (S)—N-(Cyclopropyl(3,4difluorophenyl)methyl)-3-((2-iminooxazolidin-3-yl)methyl)-5-(1-isopropyl-3-(trifluoromethyl)-1H-pyrazol-4-yl)benzamide] | < 100 nM | < 0.1 nM | –
21 | Cc1cc([C@@H](NC(=O)c2cc(CN3CCOC3=N)cc(-c3cc(C(F)(F)F)nn3C)c2)C2CC2)ccc1F [Example 287, (S)—N-(Cyclopropyl(4-fluoro-3-methylphenyl)methyl)-3-((2-iminooxazolidin-3-yl)methyl)-5-(1-methyl-3-(trifluoromethyl)-1H-pyrazol-5-yl)benzamide] | 100 nM | – | < 0.1 nM
22 | Cc1cc([C@@H](NC(=O)c2cc(Cn3ccoc3=N)cc(-c3cn(C(C)C)nc3C(F)(F)F)c2)C2CC2)ccc1F [Example 291, (S)—N-(Cyclopropyl(4-fluoro-3-methylphenyl)methyl)-3-((2-iminooxazol-3(2H)-yl)methyl)-5-(1-isopropyl-3-(trifluromethyl)-1H-pyrazol-4-yl)benzamide] | < 100 nM | < 0.1 nM | –
23 | CCn1cc(-c2cc(Cn3ccoc3=N)cc(C(=O)NCc3ccc(F)c(C)c3)c2)c(C(F)(F)F)n1 [Example 294, 3-(1-Ethyl-3-(trifluoromethyl)-1H-pyrazol-4-yl)-N-(4-fluoro-3-methylbenzyl)-5-((2-iminooxazol-3(2H)-yl)methyl)benzamide] | < 100 nM | – | < 0.1 nM
24 | CCn1cc(-c2cc(CN3CCOC3=N)cc(C(=O)NCc3ccc(F)c(C)c3)c2)c(C(F)(F)F)n1 [Example 295, 3-(1-Ethyl-3-(trifluoromethyl)-1H-pyrazol-4-yl)-N-(4-fluoro-3-methylbenzyl)-5-((2-iminooxazolidin-3-yl)methyl)benzamide] | < 100 nM | – | < 0.1 nM
25 | CCn1cc(-c2cc(Cn3ccoc3=N)cc(C(=O)N[C@H](c3ccc(F)c(Cl)c3)C3CC3)c2)c(C(F)(F)F)n1 [Example 298, (S)—N-((3-Chloro-4-fluorophenyl)(cyclopropyl)methyl)-3-(1-ethyl-3-(trifluoromethyl)-1H-pyrazol-4-yl)-5-((2-iminooxazol-3(2H)-yl)methyl)benzamide] | < 100 nM | < 0.1 nM | –
